Experimental data as given in US11850244B2, “Drug delivery systems and methods for treatment of bladder dysfunction or disorder using trospium” (TARIS BIOMEDICAL LLC, priority 2012, dated 2023).
Entries after “also recorded” stand apart in the source; their conditions may differ. Counter-ions that a name gives are not always drawn.

Columns and labels:
[1] = oral therapeutic doses for 5 days; cited from earlier work
normal bladder activity = settings: human urine after oral dosing infused into rat bladders; cited from earlier work
urothelium = experiment: Intravesical pharmacology screen in rat bladder perfusion model with acetic acid; settings: for acetic acid induced increased intravesical pressure / inter-contraction intervals compared to the control: 0.05-100 μg/mL intravesical, 0.5% acetic acid; for acetic acid induced increased intravesical pressure: FIGS. 7A-7C; for inter-contraction intervals compared to the control: FIGS. 7D-7F
Procedure: Intercontraction intervals and intravesical pressure were measured during a control periods and treatment periods.
The rats' bladder catheters were connected to a pressure transducer and syringe-pump to allow perfusion. The bladders were perfused (50 μL/minute) with saline for one hour to obtain stable micturition cycles. The perfusion then was switched to a weak acidic solution sufficient to stimulate the noxious receptors in the urothelium without inducing structural or metabolic damage to the tissue. […] A 45 minute baseline was recorded.
The vehicle or antimuscarinic drugs were administered intravesically at escalating concentrations (see Table 2 for drugs and concentrations used) with acetic acid instillation (50 μL/minute). Each dose was administered for a 30-minute period. The intravesical pressure and intercontraction interval was recorded during the last 30 minutes of the control period (baseline) and during the 30 minutes of each treatment period, with one treatment period corresponding to one dose of drug.

[2] = test system: carbachol 30 μM (M1, M2, M3, AChRa2 agonist); settings: low dose protocol 0.1 and 0.5 μg/mL, intravesical; cited from earlier work
[3] = Antimuscarinic screen in rat bladder perfusion model (plasma, urine and tissue drug levels); settings: for total recovery: theoretical dose 3.3 mg/day
From the text: The drugs were perfused at varying rates, concentrations, and times. Serial blood and urine samples were taken, and tissues (bladder, ureter, kidney, and prostate) were sampled to determine drug levels and distribution. Tissue histological exams were completed for safety.

Which results are given for `O=C(O[C@H]1C[C@H]2CC[C@@H](C1)[N+]21CCCC1)C(O)(c1ccccc1)c1ccccc1` [Trospium, trospium chloride]?
active compound excreted in the human's urine [1]: 60-80%; effect on bladder capacity and intercontraction interval (normal bladder activity): more positive effect; acetic acid induced increased intravesical pressure (urothelium): dose dependent reductions; inter-contraction intervals compared to the control (urothelium; listed as trospium): increase intercontraction interval; also recorded: increased the inter-contraction intervals compared to the control; inter-contraction intervals compared to the control (urothelium; listed as trospium chloride): kept the inter-contraction intervals closer to the baseline measurement; urinary retention or significant systemic exposure (urothelium; at intravesical concentration normalizing urothelial sensory function): did not produce urinary retention or significant systemic exposure; concentration range showing activity (urothelium; intravesical): 0.05 to 100 µg/mL; intercontraction interval ratio to baseline [2]: performed similarly; urine concentration ([3]; 24-48 hours after exposure): about 150 μg/mL; urine concentration ([3]; 48-72 hours after exposure): > 125 µg/mL; Cmax ([3]; rat, in vivo): 0.06 to 0.7 ng/mL; Effective Urine Concentration ([3]; rat, intravesical perfusion): 1 to 10 µg/mL; Urine to Plasma Ratio ([3]; rat, intravesical perfusion): 15,380; total recovery [3]: near the theoretical dose

What does the source list for `CCN(CC)CC#CCOC(=O)C(O)(c1ccccc1)C1CCCCC1` (stereo not drawn) [Oxybutynin, oxybutynin chloride]?
acetic acid induced increased intravesical pressure (urothelium): dose dependent reductions; inter-contraction intervals compared to the control (urothelium): neither of which altered intercontraction interval; inter-contraction intervals compared to the control (urothelium; listed as oxybutynin hydrochloride): little effect; intercontraction interval ratio to baseline [2]: performed similarly; systemic absorption following intravesical administration ([3]; compared among the three drugs): significantly higher systemic absorption; estimated intravesical absorption ([3]; rat, in vivo): 83 % of the intravesical dose; Effective Urine Concentration ([3]; rat, intravesical perfusion): 1 to 10 µg/mL; total recovery [3]: low total recovery

Which “acetic acid induced increased intravesical pressure” value (urothelium) does the source give for `Cc1ccc(O)c([C@H](CCN(C(C)C)C(C)C)c2ccccc2)c1` [Toterodine, tolterodine tartrate] here?
The value was “dose dependent reductions”.

And the “inter-contraction intervals compared to the control” value (urothelium; listed as tolterodine)?
Its value is “neither of which altered intercontraction interval”.

What about the “inter-contraction intervals compared to the control” value (urothelium; listed as tolterodine tartrate) of the same compound?
Its value is “little effect”.

And the “Effective Urine Concentration” value ([3]; rat, intravesical perfusion)?
Its value is 1 to 10 µg/mL.

For dimethindene maleate, which “intercontraction interval ratio to baseline” value [2] is on record?
Its value is “performed similarly”.
